# Source: ChEMBL document CHEMBL5579855 (J Med Chem, 2024)
# What was measured:
# [1] = Cmax in mouse at 4 mg/kg, ip; type: ADME, organism-based; conditions: in vivo
# [2] = biological target: Histone-lysine N-methyltransferase EZH2 (Homo sapiens, UniProt Q15910); test: Inhibition of EZH2 (unknown origin)
# [3] = AUC (0 to infinity) in mouse at 4 mg/kg, ip; type: ADME, organism-based; conditions: in vivo
# [4] = biological target: Protein arginine N-methyltransferase 5 (Homo sapiens, UniProt O14744); test: Inhibition of PRMT5 (unknown origin)
# Sequence of Protein arginine N-methyltransferase 5 (O14744 whole entry): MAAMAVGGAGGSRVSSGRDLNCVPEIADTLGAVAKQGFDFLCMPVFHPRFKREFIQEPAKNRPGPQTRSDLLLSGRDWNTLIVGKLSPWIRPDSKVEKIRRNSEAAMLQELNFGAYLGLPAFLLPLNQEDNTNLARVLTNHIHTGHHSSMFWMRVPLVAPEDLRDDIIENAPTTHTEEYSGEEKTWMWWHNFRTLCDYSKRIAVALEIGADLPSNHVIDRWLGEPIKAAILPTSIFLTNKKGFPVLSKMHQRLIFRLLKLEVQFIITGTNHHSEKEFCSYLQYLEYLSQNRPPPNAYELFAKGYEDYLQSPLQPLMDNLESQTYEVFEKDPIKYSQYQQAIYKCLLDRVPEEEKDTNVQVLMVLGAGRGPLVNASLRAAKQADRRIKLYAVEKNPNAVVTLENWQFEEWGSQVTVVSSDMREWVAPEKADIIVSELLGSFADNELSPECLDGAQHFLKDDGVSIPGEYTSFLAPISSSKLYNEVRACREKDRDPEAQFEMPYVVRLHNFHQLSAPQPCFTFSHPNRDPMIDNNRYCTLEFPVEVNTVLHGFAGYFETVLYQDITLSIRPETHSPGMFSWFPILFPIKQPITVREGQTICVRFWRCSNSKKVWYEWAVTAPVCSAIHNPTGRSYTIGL
# [5] = MRT (0 to t) in mouse at 4 mg/kg, ip; type: ADME, organism-based; conditions: in vivo
# [6] = Toxicity in male BALB/c/Nu/Nu mouse xenografted with human PANC-1 cells assessed as drug tolerance administered as ip dose and measured every 2 days for 21 days; type: organism-based; conditions: in vivo, 504 h, time 21 day
# [7] = biological target: DNA (cytosine-5)-methyltransferase 1 (Homo sapiens, UniProt P26358); test: Inhibition of DNMT1 (unknown origin)
# [8] = Toxicity in male BALB/c/Nu/Nu mouse xenografted with human PANC-1 cells assessed as change in body weight administered as ip dose and measured every 2 days for 21 days; type: organism-based; conditions: in vivo, 504 h, time 21 day
# [9] = biological target: Protein arginine N-methyltransferase 1 (Homo sapiens, UniProt Q99873); test: Inhibition of PRMT1 (unknown origin)
# Sequence of Protein arginine N-methyltransferase 1 (Q99873 whole entry): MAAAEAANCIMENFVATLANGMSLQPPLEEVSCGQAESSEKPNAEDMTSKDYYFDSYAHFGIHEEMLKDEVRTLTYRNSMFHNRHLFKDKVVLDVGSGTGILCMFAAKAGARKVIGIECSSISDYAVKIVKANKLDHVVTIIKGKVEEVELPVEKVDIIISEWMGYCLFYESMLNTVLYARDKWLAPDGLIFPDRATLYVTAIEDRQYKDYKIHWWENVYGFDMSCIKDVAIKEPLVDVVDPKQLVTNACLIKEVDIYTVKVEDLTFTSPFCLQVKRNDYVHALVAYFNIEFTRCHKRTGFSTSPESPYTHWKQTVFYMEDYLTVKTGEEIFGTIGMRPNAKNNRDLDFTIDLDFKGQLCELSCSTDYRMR
# [10] = AUC (0 to last) in mouse at 4 mg/kg, ip; type: ADME, organism-based; conditions: in vivo
# [11] = biological target: Histone-lysine N-methyltransferase 2B (Homo sapiens, UniProt Q9UMN6); test: Inhibition of MLL4 (unknown origin)
# Sequence of Histone-lysine N-methyltransferase 2B (Q9UMN6 whole entry): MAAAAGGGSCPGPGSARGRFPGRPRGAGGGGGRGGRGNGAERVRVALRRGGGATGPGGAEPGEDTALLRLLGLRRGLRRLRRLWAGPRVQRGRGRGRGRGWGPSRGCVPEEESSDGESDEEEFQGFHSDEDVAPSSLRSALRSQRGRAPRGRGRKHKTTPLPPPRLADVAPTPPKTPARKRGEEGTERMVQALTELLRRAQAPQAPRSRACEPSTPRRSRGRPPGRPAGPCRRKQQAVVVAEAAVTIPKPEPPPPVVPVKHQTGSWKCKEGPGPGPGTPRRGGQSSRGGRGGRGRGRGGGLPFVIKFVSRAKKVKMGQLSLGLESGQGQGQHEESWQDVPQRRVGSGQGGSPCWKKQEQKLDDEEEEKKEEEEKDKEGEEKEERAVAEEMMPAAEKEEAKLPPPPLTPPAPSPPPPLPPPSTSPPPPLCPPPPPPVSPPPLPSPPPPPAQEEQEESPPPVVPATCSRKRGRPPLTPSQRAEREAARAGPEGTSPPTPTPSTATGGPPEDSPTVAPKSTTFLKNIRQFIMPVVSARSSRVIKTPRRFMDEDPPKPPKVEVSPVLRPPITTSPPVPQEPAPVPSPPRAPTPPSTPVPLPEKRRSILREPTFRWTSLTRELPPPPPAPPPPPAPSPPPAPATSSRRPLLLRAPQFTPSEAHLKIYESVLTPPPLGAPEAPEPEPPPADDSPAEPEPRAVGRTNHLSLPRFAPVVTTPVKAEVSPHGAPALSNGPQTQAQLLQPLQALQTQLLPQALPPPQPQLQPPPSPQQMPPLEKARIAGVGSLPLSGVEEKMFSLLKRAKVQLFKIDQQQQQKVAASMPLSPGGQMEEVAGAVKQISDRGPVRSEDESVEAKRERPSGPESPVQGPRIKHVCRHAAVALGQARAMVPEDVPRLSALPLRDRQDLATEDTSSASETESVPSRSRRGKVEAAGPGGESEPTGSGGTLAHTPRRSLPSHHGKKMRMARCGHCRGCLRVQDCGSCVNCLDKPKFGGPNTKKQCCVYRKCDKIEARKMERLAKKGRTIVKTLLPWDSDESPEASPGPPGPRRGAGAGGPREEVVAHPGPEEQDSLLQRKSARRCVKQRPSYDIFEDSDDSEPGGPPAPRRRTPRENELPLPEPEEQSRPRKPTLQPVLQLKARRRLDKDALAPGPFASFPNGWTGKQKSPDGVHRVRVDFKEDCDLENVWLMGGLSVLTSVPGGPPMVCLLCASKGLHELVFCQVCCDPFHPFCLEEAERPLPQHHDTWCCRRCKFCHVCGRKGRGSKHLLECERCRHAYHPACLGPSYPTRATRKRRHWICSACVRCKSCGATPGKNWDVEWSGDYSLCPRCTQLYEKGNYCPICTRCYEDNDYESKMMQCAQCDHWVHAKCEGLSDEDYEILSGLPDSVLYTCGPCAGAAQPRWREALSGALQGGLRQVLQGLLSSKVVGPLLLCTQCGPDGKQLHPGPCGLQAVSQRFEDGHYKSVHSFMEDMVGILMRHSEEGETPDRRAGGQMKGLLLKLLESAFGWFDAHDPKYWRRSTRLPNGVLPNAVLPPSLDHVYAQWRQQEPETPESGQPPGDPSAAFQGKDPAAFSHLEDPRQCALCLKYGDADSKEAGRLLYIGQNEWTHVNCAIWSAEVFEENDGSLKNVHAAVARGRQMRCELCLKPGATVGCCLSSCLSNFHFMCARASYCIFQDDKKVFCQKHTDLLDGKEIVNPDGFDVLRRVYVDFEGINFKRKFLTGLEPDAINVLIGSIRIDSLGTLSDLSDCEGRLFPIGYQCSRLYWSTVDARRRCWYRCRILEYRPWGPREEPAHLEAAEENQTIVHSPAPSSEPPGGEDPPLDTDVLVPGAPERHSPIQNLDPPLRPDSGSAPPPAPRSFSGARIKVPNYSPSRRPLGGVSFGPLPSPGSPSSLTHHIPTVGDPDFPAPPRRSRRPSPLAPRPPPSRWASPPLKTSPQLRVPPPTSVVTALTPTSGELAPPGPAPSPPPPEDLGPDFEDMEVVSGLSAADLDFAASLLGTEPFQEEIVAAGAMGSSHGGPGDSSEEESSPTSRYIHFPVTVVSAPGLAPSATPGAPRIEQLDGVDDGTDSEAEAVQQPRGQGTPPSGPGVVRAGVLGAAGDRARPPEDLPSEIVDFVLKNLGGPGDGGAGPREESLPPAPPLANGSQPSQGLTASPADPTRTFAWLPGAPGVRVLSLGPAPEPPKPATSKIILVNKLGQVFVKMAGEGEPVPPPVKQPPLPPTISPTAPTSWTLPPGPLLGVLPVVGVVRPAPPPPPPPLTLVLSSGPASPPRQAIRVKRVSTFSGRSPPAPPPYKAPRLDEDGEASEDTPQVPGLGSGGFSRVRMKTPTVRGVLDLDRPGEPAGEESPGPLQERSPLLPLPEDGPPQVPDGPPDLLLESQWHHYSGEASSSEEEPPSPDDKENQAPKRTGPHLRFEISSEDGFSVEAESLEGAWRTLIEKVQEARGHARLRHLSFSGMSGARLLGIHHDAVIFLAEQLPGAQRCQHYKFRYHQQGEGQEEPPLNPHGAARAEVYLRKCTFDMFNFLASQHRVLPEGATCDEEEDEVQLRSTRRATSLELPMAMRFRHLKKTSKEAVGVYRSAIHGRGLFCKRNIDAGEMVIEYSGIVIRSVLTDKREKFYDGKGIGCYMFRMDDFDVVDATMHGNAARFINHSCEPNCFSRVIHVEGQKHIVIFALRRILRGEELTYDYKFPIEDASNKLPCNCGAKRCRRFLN
# [12] = biological target: T1, Histone-lysine N-methyltransferase EHMT1 (Homo sapiens, UniProt Q9H9B1); test: Inhibition of GLP (unknown origin)
# T1 sequence (Q9H9B1 whole entry): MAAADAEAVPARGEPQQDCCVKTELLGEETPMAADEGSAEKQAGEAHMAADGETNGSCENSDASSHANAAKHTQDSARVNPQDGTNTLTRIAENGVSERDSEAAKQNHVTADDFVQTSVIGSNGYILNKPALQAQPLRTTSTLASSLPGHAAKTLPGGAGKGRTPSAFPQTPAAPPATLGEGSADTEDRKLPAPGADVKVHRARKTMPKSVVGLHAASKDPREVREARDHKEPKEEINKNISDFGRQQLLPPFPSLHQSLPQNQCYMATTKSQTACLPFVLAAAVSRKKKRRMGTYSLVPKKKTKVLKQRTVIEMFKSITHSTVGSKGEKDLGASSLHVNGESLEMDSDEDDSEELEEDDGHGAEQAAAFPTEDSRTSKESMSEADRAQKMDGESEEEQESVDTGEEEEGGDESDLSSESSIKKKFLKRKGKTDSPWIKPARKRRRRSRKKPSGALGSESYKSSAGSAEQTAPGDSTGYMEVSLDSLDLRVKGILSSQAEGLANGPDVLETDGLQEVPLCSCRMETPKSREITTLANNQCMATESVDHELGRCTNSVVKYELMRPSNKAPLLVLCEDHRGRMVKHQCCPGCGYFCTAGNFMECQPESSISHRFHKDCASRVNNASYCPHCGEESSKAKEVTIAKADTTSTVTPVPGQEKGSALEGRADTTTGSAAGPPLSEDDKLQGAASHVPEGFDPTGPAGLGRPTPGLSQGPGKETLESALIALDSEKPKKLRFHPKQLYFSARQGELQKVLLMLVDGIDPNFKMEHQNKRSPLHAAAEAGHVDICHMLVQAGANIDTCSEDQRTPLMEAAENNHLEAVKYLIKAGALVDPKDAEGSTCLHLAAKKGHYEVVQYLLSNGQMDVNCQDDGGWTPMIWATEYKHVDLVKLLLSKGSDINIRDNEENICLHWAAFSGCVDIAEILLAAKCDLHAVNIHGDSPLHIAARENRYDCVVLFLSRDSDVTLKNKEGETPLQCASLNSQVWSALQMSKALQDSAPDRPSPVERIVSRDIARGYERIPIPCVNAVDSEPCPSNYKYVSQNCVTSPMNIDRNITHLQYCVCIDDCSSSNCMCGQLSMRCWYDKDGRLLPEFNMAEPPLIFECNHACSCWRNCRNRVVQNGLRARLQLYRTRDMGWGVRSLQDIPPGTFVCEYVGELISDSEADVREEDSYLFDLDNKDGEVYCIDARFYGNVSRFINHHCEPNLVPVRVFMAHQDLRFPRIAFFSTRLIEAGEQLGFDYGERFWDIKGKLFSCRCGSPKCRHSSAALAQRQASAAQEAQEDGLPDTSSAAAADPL
# [13] = Half life in mouse at 4 mg/kg, ip; type: ADME, organism-based; conditions: in vivo
# [14] = biological target: T2, Histone-arginine methyltransferase CARM1 (Homo sapiens, UniProt Q86X55); test: Inhibition of PRMT4 (unknown origin)
# T2 sequence (Q86X55 whole entry): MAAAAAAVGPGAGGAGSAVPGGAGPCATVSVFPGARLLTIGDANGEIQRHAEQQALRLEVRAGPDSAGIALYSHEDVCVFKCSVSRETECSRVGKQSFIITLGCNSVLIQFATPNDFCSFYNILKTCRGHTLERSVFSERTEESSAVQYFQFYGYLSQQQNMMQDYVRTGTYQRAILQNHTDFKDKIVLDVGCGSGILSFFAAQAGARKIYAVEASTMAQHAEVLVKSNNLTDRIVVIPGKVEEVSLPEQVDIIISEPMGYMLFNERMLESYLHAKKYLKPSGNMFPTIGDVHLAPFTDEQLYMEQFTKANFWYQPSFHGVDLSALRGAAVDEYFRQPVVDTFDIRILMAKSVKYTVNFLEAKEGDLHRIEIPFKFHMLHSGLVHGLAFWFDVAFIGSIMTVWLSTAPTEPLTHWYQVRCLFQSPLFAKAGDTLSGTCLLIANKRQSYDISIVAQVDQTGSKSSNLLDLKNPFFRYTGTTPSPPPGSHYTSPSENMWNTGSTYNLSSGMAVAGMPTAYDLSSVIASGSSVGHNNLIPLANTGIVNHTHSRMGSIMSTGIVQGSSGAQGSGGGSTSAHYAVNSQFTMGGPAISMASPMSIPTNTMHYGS
# [15] = biological target: Histone-lysine N-methyltransferase 2A (Homo sapiens, UniProt Q03164); test: Inhibition of MLL1 (unknown origin)
# [16] = biological target: T3, Histone-lysine N-methyltransferase NSD2 (Homo sapiens, UniProt O96028); test: Inhibition of NSD2 (unknown origin) by AlphaLISA assay
# T3 sequence (O96028 whole entry): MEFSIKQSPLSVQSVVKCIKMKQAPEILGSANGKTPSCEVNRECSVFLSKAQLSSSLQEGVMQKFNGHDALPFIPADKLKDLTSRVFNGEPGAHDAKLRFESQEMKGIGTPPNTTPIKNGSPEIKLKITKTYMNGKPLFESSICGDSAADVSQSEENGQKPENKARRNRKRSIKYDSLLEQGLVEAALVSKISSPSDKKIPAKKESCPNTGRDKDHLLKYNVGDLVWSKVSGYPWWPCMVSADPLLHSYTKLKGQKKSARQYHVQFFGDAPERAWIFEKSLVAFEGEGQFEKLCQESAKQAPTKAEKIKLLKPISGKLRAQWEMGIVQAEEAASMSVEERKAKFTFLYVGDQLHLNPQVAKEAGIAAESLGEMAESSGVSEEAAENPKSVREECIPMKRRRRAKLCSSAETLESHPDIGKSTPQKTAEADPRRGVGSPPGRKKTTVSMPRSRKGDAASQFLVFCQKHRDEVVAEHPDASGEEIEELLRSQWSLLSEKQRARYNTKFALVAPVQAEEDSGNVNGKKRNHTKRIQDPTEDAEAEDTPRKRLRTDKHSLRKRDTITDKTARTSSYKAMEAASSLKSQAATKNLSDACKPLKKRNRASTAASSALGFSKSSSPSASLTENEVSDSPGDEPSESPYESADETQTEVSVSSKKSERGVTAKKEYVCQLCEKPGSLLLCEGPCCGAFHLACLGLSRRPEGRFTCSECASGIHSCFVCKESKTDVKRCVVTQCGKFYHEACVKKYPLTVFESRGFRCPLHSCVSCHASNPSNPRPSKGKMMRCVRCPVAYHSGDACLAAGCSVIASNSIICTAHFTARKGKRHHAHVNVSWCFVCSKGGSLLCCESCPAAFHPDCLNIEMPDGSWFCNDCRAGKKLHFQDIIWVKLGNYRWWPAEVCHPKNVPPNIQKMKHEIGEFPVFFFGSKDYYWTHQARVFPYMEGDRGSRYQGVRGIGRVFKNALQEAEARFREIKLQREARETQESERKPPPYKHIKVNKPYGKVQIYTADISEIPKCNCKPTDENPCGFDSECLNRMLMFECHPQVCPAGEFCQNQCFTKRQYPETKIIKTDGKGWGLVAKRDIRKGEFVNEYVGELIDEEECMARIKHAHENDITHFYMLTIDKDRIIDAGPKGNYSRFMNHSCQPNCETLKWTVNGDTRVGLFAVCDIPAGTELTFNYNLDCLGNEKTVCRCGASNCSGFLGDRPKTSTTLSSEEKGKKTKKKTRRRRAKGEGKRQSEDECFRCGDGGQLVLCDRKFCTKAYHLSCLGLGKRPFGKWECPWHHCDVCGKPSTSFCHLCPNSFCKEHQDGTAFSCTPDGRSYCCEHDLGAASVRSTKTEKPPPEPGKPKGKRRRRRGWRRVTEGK
# MDA-MB-231 = test: cells; conditions: Homo sapiens, MDA-MB-231, 96 h
# Description: Antiproliferative activity against human MDA-MB-231 cells assessed as inhibition of cell growth incubated for 96 hrs by CCK-8 cell viability assay
# PANC-1 [17] = test: Antitumor activity against human PANC-1 cells xenografted in male BALB/c/Nu/Nu assessed as reduction in tumor growth inhibition at 4 mg/kg, ip and measured every 2 days for 21 days; conditions: Mus musculus, PANC-1, 48 h, read-out: TGI
# PANC-1 [18] = test: cells; conditions: Homo sapiens, PANC-1, 96 h
# Description: Antiproliferative activity against human PANC-1 cells assessed as inhibition of cell growth incubated for 96 hrs by CCK-8 cell viability assay
# [19] = biological target: T4, Histone-lysine N-methyltransferase EHMT2 (Homo sapiens, UniProt Q96KQ7); test: Inhibition of G9a (unknown origin) by AlphaLISA assay
# T4 sequence (Q96KQ7 whole entry): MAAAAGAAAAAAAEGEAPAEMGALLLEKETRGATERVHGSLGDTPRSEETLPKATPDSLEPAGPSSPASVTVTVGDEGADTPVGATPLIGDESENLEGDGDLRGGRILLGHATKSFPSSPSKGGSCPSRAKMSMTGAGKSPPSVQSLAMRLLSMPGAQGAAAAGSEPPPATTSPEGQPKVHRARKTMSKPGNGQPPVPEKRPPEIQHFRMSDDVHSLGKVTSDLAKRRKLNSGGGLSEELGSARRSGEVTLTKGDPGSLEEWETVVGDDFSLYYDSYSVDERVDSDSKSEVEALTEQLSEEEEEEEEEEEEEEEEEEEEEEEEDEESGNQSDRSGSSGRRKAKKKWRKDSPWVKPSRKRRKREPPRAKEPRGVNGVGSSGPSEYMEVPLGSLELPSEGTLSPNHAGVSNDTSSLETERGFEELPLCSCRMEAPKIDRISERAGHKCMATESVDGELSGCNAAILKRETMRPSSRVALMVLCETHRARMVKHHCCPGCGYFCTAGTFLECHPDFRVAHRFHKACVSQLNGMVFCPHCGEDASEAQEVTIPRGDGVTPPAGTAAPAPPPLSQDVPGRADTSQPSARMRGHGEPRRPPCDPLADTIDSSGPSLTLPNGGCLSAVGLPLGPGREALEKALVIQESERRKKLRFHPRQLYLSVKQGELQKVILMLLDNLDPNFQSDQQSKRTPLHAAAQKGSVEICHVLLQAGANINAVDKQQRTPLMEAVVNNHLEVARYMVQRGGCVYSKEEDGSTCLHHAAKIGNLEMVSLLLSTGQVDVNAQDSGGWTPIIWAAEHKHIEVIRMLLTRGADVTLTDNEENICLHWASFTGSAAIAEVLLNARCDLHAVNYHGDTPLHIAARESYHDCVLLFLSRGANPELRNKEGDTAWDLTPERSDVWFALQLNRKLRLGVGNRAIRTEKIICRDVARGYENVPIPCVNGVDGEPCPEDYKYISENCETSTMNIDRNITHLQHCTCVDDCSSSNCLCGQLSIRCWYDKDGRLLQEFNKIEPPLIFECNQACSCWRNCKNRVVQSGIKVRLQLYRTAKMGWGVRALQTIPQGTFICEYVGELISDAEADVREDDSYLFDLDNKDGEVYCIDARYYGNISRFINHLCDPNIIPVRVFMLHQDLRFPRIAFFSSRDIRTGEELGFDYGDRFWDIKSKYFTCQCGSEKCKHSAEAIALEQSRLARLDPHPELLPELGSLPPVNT
# Sequence of Histone-lysine N-methyltransferase EZH2 (Q15910 whole entry): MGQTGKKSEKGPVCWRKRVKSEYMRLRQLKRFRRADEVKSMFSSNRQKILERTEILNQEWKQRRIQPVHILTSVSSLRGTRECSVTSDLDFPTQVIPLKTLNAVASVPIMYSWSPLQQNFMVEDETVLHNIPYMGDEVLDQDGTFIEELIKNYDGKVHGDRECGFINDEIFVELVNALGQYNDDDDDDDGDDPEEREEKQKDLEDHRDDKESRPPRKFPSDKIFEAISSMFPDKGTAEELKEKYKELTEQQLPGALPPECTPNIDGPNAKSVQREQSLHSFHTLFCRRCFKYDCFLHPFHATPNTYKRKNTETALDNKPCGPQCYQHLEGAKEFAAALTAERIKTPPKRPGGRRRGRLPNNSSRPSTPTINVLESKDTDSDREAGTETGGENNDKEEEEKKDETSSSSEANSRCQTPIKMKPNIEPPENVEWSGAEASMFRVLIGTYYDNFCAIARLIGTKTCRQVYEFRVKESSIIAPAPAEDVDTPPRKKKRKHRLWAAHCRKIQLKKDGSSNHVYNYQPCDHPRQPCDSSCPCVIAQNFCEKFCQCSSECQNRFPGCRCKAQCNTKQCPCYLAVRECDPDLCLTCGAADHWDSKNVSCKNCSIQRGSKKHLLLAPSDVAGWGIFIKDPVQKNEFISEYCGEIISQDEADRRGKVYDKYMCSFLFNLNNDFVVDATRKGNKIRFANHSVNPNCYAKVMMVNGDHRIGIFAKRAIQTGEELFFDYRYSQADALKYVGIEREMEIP
smiles,measurement,setting,value
COc1cc2c(NC3CCN(C(C)C)CC3)nc(C#N)nc2cc1OCCCN1CCCC1,Cmax,[1],732 ng/mL
same,IC50,[2],> 10 µM
same,AUC,[3],2960 ng·h/mL
same,IC50,[4],> 10 µM
same,MRT last,[5],20.3 h
same,Activity,[6],Non-Toxic
same,IC50,[7],> 10 µM
same,Activity,[8],Non-Toxic
same,IC50,[9],6.44 µM
same,AUClast,[10],1987 ng·h/mL
same,IC50,[11],> 10 µM
same,IC50,[12],0.41 µM
same,half-life,[13],16 h
same,IC50,[14],> 10 µM
same,IC50,[15],> 10 µM
COc1cc(F)c(-c2cc(Cn3cnc4c(N)ncnc43)c(N3CCC[C@](N)([C@H](O)CF)C3)cn2)cc1F,IC50,[16],< 0.1 µM
COc1cc2c(NC3CCN(C(C)C)CC3)nc(N3CCC(F)(F)CC3)nc2cc1OCCCN1CCCC1,IC50,MDA-MB-231,3.31 µM
same,inhibition in vivo at 4 mg/kg,PANC-1 [17],7.34%
same,IC50,PANC-1 [18],5.74 µM
COc1cc2nc(C#N)nc(NC3CCN(Cc4ccccc4)CC3)c2cc1OC,IC50,[19],> 10 µM
same,IC50,[16],2.65 µM
C=CC(=O)N(C)c1nc(NC2CCN(C(C)C)CC2)c2cc(OC)c(OCCCN3CCCC3)cc2n1,IC50,[19],0.0085 µM
CNc1nc2cc(OCCCN3CCCC3)c(OC)cc2n1C(C)C,IC50,[19],< 0.1 µM
